Key:
[1] = healthy volunteers under high stress or when diarrhoea was induced; cited from earlier work
[2] = tested on: human gut microbiota; test: In vitro gut model batch culture fermentation, organic acid production by gas chromatography; type: cell-based; settings: 'except' = not significantly elevated
Method: (§1) In vitro gut model batch culture fermentations were run for 72 hours. Samples were collected for bacterial enumeration and organic acid production through fluorescent in situ hybridisation combined with flow cytometry and gas chromatography, respectively. Overall, the main findings were that the ZnC supplementation combined with WD increased in Bifidobacterium spp., and Clostridium histolyticum group but this finding was not shown in the vessels consisting of the ZnC components only. […] Optimising the dose and substrate availability is important to ensure homeostasis and prevent potential pathogenic bacterial growth. […]
(§2) A 750 μl sample was collected from each vessel at timepoints 0, 8, 24, 48 and 72 hours. […] The subsequent pellet was used for bacterial enumeration through fluorescence in situ hybridisation flow-cytometry (FISH-FCM) and 500 μl of supernatant used to assess organic acid production via gas chromatography. […]
(§3) All statistical results were analysed in Prism 8 version 8.4.0 (GraphPad Prism 8, San Diego, California, USA). The FISH-FCM and organic acid production were analysed using two-way mixed ANOVA to compare different test substrates and time points. […]

[3] = tested on: total bacteria; test: In vitro gut model batch culture fermentation, FISH-FCM enumeration of total bacteria (Eub); type: cell-based, human faecal bacteria; settings: until 48 h, WD experiment; 'except' = not elevated
Method: as §1, §2, §3

[4] = ZnC supplementation 150 mg/day for 1 week; cited from earlier work

Zinc carnosine [ZnC]
intestinal barrier function [1]: maintained or improved
propionate compared to baseline ([2]; 24, 48 and 72 h, WD experiment): except
acetate compared to baseline ([2]; 72 h, PHGG experiment): except
total bacteria counts elevated [3]: except
UC clinical outcomes and remission [4]: improve

Source: patent US20250049090A1, “A NUTRITIONAL SUPPLEMENT FOR IMPROVED GUT HEALTH” (Haleon US Holdings LLC, priority 2021, published 2025)
